In ChEMBL document CHEMBL3046620, “Resistance monitoring to deltamethrin and chlorpyriphos-ethyl in 13 populations of Typhlodromus pyri Scheuten (Acari: Phytoseiidae) from vineyards in the southwest of France” (2008) one finds mortality data, which are given here for two compounds.

Assay type in all cases: functional
Assay [1] has as its system Typhlodromus pyri. The assay is described as follows: Miticidal activity against compound treated Phaseolus vulgaris leaf-fed female Typhlodromus pyri Scheuten 11 assessed as mortality at 855 mg/l sprayed on leaf disks measured after 3 days. Conditions: Scheuten 11, foliar, 72 h.
Assay [2] concerns Typhlodromus pyri. The assay is described as follows: Miticidal activity against compound treated Phaseolus vulgaris leaf-fed female Typhlodromus pyri Scheuten 10 assessed as mortality at 855 mg/l sprayed on leaf disks measured after 3 days. The note with it: Scheuten 10, foliar, 72 h.
The test system of assay [3] is Typhlodromus pyri. In words: Miticidal activity against compound treated Phaseolus vulgaris leaf-fed female Typhlodromus pyri Scheuten 9 assessed as mortality at 855 mg/l sprayed on leaf disks measured after 3 days. Conditions: Scheuten 9, foliar, 72 h.
Assay [4] relates to Typhlodromus pyri. In words: Miticidal activity against compound treated Phaseolus vulgaris leaf-fed female Typhlodromus pyri Scheuten 8 assessed as mortality at 855 mg/l sprayed on leaf disks measured after 3 days. The note with it: Scheuten 8, foliar, 72 h.
For assay [5], the system named is Typhlodromus pyri. In words: Miticidal activity against compound treated Phaseolus vulgaris leaf-fed female Typhlodromus pyri Scheuten 7 assessed as mortality at 855 mg/l sprayed on leaf disks measured after 3 days. Conditions: Scheuten 7, foliar, 72 h.
Assay [6] relates to Typhlodromus pyri. In words: Miticidal activity against compound treated Phaseolus vulgaris leaf-fed female Typhlodromus pyri Scheuten 6 assessed as mortality at 855 mg/l sprayed on leaf disks measured after 3 days. Conditions: Scheuten 6, foliar, 72 h.
The test system of assay [7] is Typhlodromus pyri. The assay is described as follows: Miticidal activity against compound treated Phaseolus vulgaris leaf-fed female Typhlodromus pyri Scheuten 5 assessed as mortality at 855 mg/l sprayed on leaf disks measured after 3 days. The note with it: Scheuten 5, foliar, 72 h.
Assay [8] deals with Typhlodromus pyri. The assay is described as follows: Miticidal activity against compound treated Phaseolus vulgaris leaf-fed female Typhlodromus pyri Scheuten 4 assessed as mortality at 855 mg/l sprayed on leaf disks measured after 3 days. Conditions: Scheuten 4, foliar, 72 h.
For assay [9], the system named is Typhlodromus pyri. In words: Miticidal activity against compound treated Phaseolus vulgaris leaf-fed female Typhlodromus pyri Scheuten 3 assessed as mortality at 855 mg/l sprayed on leaf disks measured after 3 days. The note with it: Scheuten 3, foliar, 72 h.
For assay [10], the system named is Typhlodromus pyri. The assay is described as follows: Miticidal activity against compound treated Phaseolus vulgaris leaf-fed female Typhlodromus pyri Scheuten 2 assessed as mortality at 855 mg/l sprayed on leaf disks measured after 3 days. Conditions: Scheuten 2, foliar, 72 h.
Assay [11] has as its system Typhlodromus pyri. The assay is described as follows: Miticidal activity against compound treated Phaseolus vulgaris leaf-fed female Typhlodromus pyri Scheuten 1 assessed as mortality at 855 mg/l sprayed on leaf disks measured after 3 days. Conditions: Scheuten 1, foliar, 72 h.
Assay [12] relates to Typhlodromus pyri. In words: Miticidal activity against compound treated Phaseolus vulgaris leaf-fed female Typhlodromus pyri Scheuten 13 assessed as mortality at 855 mg/l sprayed on leaf disks measured after 3 days. The note with it: Scheuten 13, foliar, 72 h.
Assay [13] deals with Typhlodromus pyri. In words: Miticidal activity against compound treated Phaseolus vulgaris leaf-fed female Typhlodromus pyri Scheuten 12 assessed as mortality at 855 mg/l sprayed on leaf disks measured after 3 days. The note with it: Scheuten 12, foliar, 72 h.
The test system of assay [14] is Typhlodromus pyri. In words: Miticidal activity against compound treated Phaseolus vulgaris leaf-fed female Typhlodromus pyri Scheuten 13 assessed as mortality at 17.5 mg/l sprayed on leaf disks measured after 3 days. The note with it: Scheuten 13, foliar, 72 h.
The subject of assay [15] is Typhlodromus pyri. The assay is described as follows: Miticidal activity against compound treated Phaseolus vulgaris leaf-fed female Typhlodromus pyri Scheuten 12 assessed as mortality at 17.5 mg/l sprayed on leaf disks measured after 3 days. Conditions: Scheuten 12, foliar, 72 h.
In assay [16] the test system is Typhlodromus pyri. The assay is described as follows: Miticidal activity against compound treated Phaseolus vulgaris leaf-fed female Typhlodromus pyri Scheuten 11 assessed as mortality at 17.5 mg/l sprayed on leaf disks measured after 3 days. Conditions: Scheuten 11, foliar, 72 h.
Assay [17] deals with Typhlodromus pyri. In words: Miticidal activity against compound treated Phaseolus vulgaris leaf-fed female Typhlodromus pyri Scheuten 10 assessed as mortality at 17.5 mg/l sprayed on leaf disks measured after 3 days. The note with it: Scheuten 10, foliar, 72 h.
Assay [18] concerns Typhlodromus pyri. The assay is described as follows: Miticidal activity against compound treated Phaseolus vulgaris leaf-fed female Typhlodromus pyri Scheuten 9 assessed as mortality at 17.5 mg/l sprayed on leaf disks measured after 3 days. Conditions: Scheuten 9, foliar, 72 h.
For assay [19], the system named is Typhlodromus pyri. The assay is described as follows: Miticidal activity against compound treated Phaseolus vulgaris leaf-fed female Typhlodromus pyri Scheuten 8 assessed as mortality at 17.5 mg/l sprayed on leaf disks measured after 3 days. Conditions: Scheuten 8, foliar, 72 h.
Assay [20] has as its system Typhlodromus pyri. In words: Miticidal activity against compound treated Phaseolus vulgaris leaf-fed female Typhlodromus pyri Scheuten 7 assessed as mortality at 17.5 mg/l sprayed on leaf disks measured after 3 days. The note with it: Scheuten 7, foliar, 72 h.
For assay [21], the system named is Typhlodromus pyri. The assay is described as follows: Miticidal activity against compound treated Phaseolus vulgaris leaf-fed female Typhlodromus pyri Scheuten 6 assessed as mortality at 17.5 mg/l sprayed on leaf disks measured after 3 days. Conditions: Scheuten 6, foliar, 72 h.
Assay [22] has as its system Typhlodromus pyri. The assay is described as follows: Miticidal activity against compound treated Phaseolus vulgaris leaf-fed female Typhlodromus pyri Scheuten 5 assessed as mortality at 17.5 mg/l sprayed on leaf disks measured after 3 days. Conditions: Scheuten 5, foliar, 72 h.
The subject of assay [23] is Typhlodromus pyri. The assay is described as follows: Miticidal activity against compound treated Phaseolus vulgaris leaf-fed female Typhlodromus pyri Scheuten 4 assessed as mortality at 17.5 mg/l sprayed on leaf disks measured after 3 days. Conditions: Scheuten 4, foliar, 72 h.
Assay [24] deals with Typhlodromus pyri. In words: Miticidal activity against compound treated Phaseolus vulgaris leaf-fed female Typhlodromus pyri Scheuten 3 assessed as mortality at 17.5 mg/l sprayed on leaf disks measured after 3 days. The note with it: Scheuten 3, foliar, 72 h.
For assay [25], the system named is Typhlodromus pyri. The assay is described as follows: Miticidal activity against compound treated Phaseolus vulgaris leaf-fed female Typhlodromus pyri Scheuten 2 assessed as mortality at 17.5 mg/l sprayed on leaf disks measured after 3 days. The note with it: Scheuten 2, foliar, 72 h.
For assay [26], the system named is Typhlodromus pyri. The assay is described as follows: Miticidal activity against compound treated Phaseolus vulgaris leaf-fed female Typhlodromus pyri Scheuten 1 assessed as mortality at 17.5 mg/l sprayed on leaf disks measured after 3 days. Conditions: Scheuten 1, foliar, 72 h.

In the case of `CCOP(=S)(OCC)Oc1nc(Cl)c(Cl)cc1Cl` [CHLORPYRIFOS], the mortality at 855 µg/mL stood at 10.4% in assay [1]; 55.5% in [2]; 74% in [3]; 25.9% in assay [4]; 40.9% in [5]; 7.6% in assay [6]. Also, the mortality at 855 µg/mL in [7] turned out to be 8.3%; in [8], 56.2%; in assay [9] it was 23.6%; in assay [10], 33.3%; in assay [11], 41.1%; in assay [12] it was 32.5%. Further, the mortality at 855 µg/mL in assay [13] was 7.9%.
On to `CC1(C)[C@H](C(=O)O[C@H](C#N)c2cccc(Oc3ccccc3)c2)[C@@H]1C=C(Br)Br` [DELTAMETHRIN], for which the mortality at 17.5 µg/mL in assay [14] was determined as 75%; in assay [15] it was 20.6%; in assay [16] it was 62.9%; in assay [17], 100%; in [18] it was 74%; in assay [19], 31.2%. Also, the mortality at 17.5 µg/mL in assay [20] came out at 23.6%; in assay [21] it was 5.3%; in assay [22], 86.1%; in assay [23] it was 84.3%; in [24], 61.8%; in [25], 92%. In addition, the mortality at 17.5 µg/mL in assay [26] was 90.2%.
